Reference: patent publication US5412098A, “Quinolone derivative or salt thereof and antibacterial containing the same” (Wakunaga Seiyaku Kabushiki Kaisha, priority 1991, dated 1995)
Converted amounts (≈) assume the structure as drawn.

Columns and labels:
[1] = tested on: S. aureus 209P (IFO 12732); test: Minimum inhibitory concentration, standard method of Japan Society of Chemotherapy, S. aureus 209P; assay type: cell-based; details: Staphylococcus aureus
Method: (§1) Antibacterial activity, absorption and excretion of the compounds indicated in Examples were tested as follows.
(§2) The minimum inhibitory concentration (MIC: microgram/ml) is measured by the standard method of Japan Society of Chemotherapy, (Chemotherapy, Volume 29, No.1, pp.76-79, 1981). The results are shown in Table 52 in which compound numbers are the same as those indicated in Examples.

P. aeruginosa (IFO 3445) = test: Minimum inhibitory concentration, standard method of Japan Society of Chemotherapy, P. aeruginosa; assay type: cell-based; details: Pseudomonas aeruginosa, IFO3445
Method: as §1, §2

[2] = Recovery in bile after oral administration (disk method, Bacillus subtilis ATCC 6633); assay type: in vivo; details: rat, 20 mg/kg, rats, prepared as in urine test (20 mg/10 ml/kg), read-out: Excretion Rate, In Bile
Method: (§3) The absorption and excretion after oral administration of the compounds of the present invention were tested by measuring the recovery in urine and bile as follows.
A subject compound was prepared in the same manner as the recovery test in urine and was orally administered to the rats. The bile was collected by using a polyethylene tube inserted into the choledochus over 24 hours. The concentration of the subject compound in the bile sample was examined in the same manner as the recovery in urine to obtain an excretion rate in bile for 24 hours.

[3] = Recovery in urine after oral administration (disk method, Bacillus subtilis ATCC 6633); assay type: in vivo, male JCL-SD rats; details: rat, 20 mg/kg, rats, 20 mg/10 ml/kg in 0.5% methylcellulose, fasted overnight, read-out: Excretion Rate, In Urine
Method: as §3
To a group of three male JCL-SD rats (6 weeks old) fasted overnight, a subject compound was orally administered as prepared to be 20 mg/10 ml/kg with 0.5% of methylcellulose solution. The sampling was carried out by collecting urine in 0 to 6 hours and 6 to 24 hours. The concentration of the subject compound in the urine was examined by a disk method by using Bacillus subtilis ATCC 6633 as a testing bacillus to obtain an excretion rate in urine for 24 hours.

[4] = tested on: E. Coli NIH JC-2 (IFO 12734); test: Minimum inhibitory concentration, standard method of Japan Society of Chemotherapy, E. Coli NIH JC-2; assay type: cell-based; details: Escherichia coli, IFO12734
Method: as §1, §2

SMILES | MIC [1] [µg/mL] | MIC (P. aeruginosa (IFO 3445)) [µg/mL] | dose excreted at 24 h [2] [%] | dose excreted at 24 h [3] [%] | MIC [4] [µg/mL]
C[C@@H]1CN(c2nc3c(cc2F)c(=O)c(C(=O)O)cn3-c2cnsn2)C[C@@H]1N (single isomer, unassigned) [Compound 19] | 0.1 (≈ 0.256 µM) | 0.39 (≈ 0.999 µM) | 4.4 | 80.6 | < 0.013
N[C@H]1CCN(c2nc3c(cc2F)c(=O)c(C(=O)O)cn3-c2csnn2)C1 [Compound 58] | 1.56 (≈ 4.14 µM) | 0.39 (≈ 1.04 µM) |  |  | 0.05 (≈ 0.133 µM)
Cc1nonc1-n1cc(C(=O)O)c(=O)c2cc(F)c(N3CC[C@H](N)C3)nc21 [Compound 81] | 0.1 (≈ 0.267 µM) | 0.2 (≈ 0.534 µM) |  |  | 0.05 (≈ 0.134 µM)
Cc1c(F)c(N2CC[C@H](N)C2)cc2c1c(=O)c(C(=O)O)cn2-c1cnsn1 [Compound 162] | 0.1 (≈ 0.257 µM) | 0.2 (≈ 0.514 µM) |  |  | 0.013 (≈ 0.0334 µM)

More lines, in order of falling MIC [1], values ahead:

MIC [1] [µg/mL] | MIC (P. aeruginosa (IFO 3445)) [µg/mL] | dose excreted at 24 h [2] [%] | dose excreted at 24 h [3] [%] | MIC [4] [µg/mL] | SMILES
0.39 (≈ 0.957 µM) | 3.13 (≈ 7.68 µM) |  |  | 3.13 (≈ 7.68 µM) | N[C@H]1CCN(c2c(F)cc3c(=O)c(C(=O)O)cn(Cc4cnsn4)c3c2F)C1 [Compound 126]
0.2 | 0.1 | 2 | 20 | < 0.013 | Cl.N[C@H]1CCN(c2nc3c(cc2F)c(=O)c(C(=O)O)cn3-c2cnsn2)C1 [Compound 18, 7-(3-(S)-Aminopyrrolidin-1-yl)-6-fluoro-1-(1,2,5-thiadiazol-3-yl)-1,4-dihydro-4-oxo-1,8-naphthyridine-3-carboxylic acid hydrochloride]
0.2 | 0.39 |  |  | 0.05 | Cc1nsnc1-n1cc(C(=O)O)c(=O)c2cc(F)c(N3CC[C@H](N)C3)nc21.Cl [Compound 187, 7-(3-(S)-Aminopyrrolidin-1-yl)-6-fluoro-1-(4-methyl-1,2,5-thiadiazol-3-yl)-1,4-dihydro-4-oxo-1,8-naphthyridine-3-carboxylic acid hydrochloride]
